Assay results as given in the OligoGym collection.
After the bases stand the sugars from the 5' end (letter, count) and the backbone: PS all phosphorothioate, else s phosphorothioate and o phosphodiester by linkage. Methylation of C is not given here. e = 2'-O-(2-methoxyethyl) (MOE); k = constrained ethyl (cEt); d = 2'-deoxy (DNA); m = 2'-O-methyl

Target: HSD17B13
Details: ASO, HepaRG

Sequence | target mRNA inhibition (1 µM) [%] | other results
GATATTGATATACGAT (sugars k3 d10 k3, PS) | 2 | –
TACCTCTAAGTTAGCC (sugars k3 d9 k3 e1, PS) | 30 | –
ATTCTGTGTTCTTGTT (sugars k3 d10 k3, PS) | 67 | –
GTCAGTAGAGAGCATA (sugars k3 d10 k3, PS) | 85 | target mRNA inhibition (0.02 µM): 0%; target mRNA inhibition (0.078 µM): 0%; target mRNA inhibition (0.313 µM): 27%; target mRNA inhibition (1.25 µM): 78%; target mRNA inhibition (5 µM): 74%
AGTCTTGATGTAGTGG (sugars k3 d10 k3, PS) | 63 | –
ATGTTTATGTAAGCAC (sugars kkdddddddddkekek, PS) | 61 | –
GAACACTGTCATAAAG (sugars k3 d10 k3, PS) | 43 | –
TTTCACCTCAGGTGAC (sugars k3 d10 k3, PS) | 52 | –
AGTAAATGATGGCAGG (sugars k3 d10 k3, PS) | 40 | –
CTTCTATTAGTTGGCC (sugars k3 d10 k3, PS) | 11 | –
TAAGCAGAATTGTGAA (sugars kkdddddddddkekek, PS) | 29 | –
GCCAACACTAATCTCA (sugars k3 d10 k3, PS) | 40 | –
TCTCAAGGAGTACTTC (sugars k3 d10 k3, PS) | 80 | target mRNA inhibition (0.02 µM): 26%; target mRNA inhibition (0.078 µM): 32%; target mRNA inhibition (0.313 µM): 58%; target mRNA inhibition (1.25 µM): 82%; target mRNA inhibition (5 µM): 91%
TAAAGCAGGCTACTTT (sugars k3 d10 k3, PS) | 9 | –
GAAAUTGATACACCAA (sugars k3 d1 m1 d8 k3, PS) | 58 | –
GATTTAAAATAGAGTC (sugars k3 d10 k3, PS) | 46 | –
AGTAGATTTGGTAGAG (sugars k3 d10 k3, PS) | 67 | –
CTCCAATACAGGCCAT (sugars k3 d10 k3, PS) | 20 | –
GAATGCTACTTGAACA (sugars k3 d1 m1 d8 k3, PS) | 48 | –
CCCAACCCAAGCTACC (sugars k3 d10 k3, PS) | 22 | –
AGCATTATTCACCACG (sugars k3 d10 k3, PS) | 53 | –
ACTACAAGAGGTTATT (sugars k3 d9 k3 e1, PS) | 58 | –
CCAACGACTCCAAGTA (sugars k3 d10 k3, PS) | 20 | –

Sequence | target mRNA inhibition (1 µM) [%] | other results
GCAGTAAAGTGCTAAG (sugars k3 d10 k3, PS) | 83 | target mRNA inhibition (0.02 µM): 44%; target mRNA inhibition (0.078 µM): 37%; target mRNA inhibition (0.313 µM): 62%; target mRNA inhibition (1.25 µM): 78%; target mRNA inhibition (5 µM): 91%
AATTTTCGGGTTCTTA (sugars k3 d10 k3, PS) | 35 | –
CATTCGAATTTCTTCA (sugars k3 d10 k3, PS) | 77 | target mRNA inhibition (0.02 µM): 29%; target mRNA inhibition (0.078 µM): 53%; target mRNA inhibition (0.313 µM): 74%; target mRNA inhibition (1.25 µM): 91%; target mRNA inhibition (5 µM): 97%
CTGGGATACTATTCTC (sugars k3 d10 k3, PS) | 57 | –
CTAGGGAAATCTTTCA (sugars kkdddddddddkekek, PS) | 46 | –
TTAAAATAGAGTCGGT (sugars k3 d1 m1 d8 k3, PS) | 70 | –
AGCCAGTACAGTTCCT (sugars kkdddddddddkekek, PS) | 49 | –
GTTGCACCGTTTTGGG (sugars k3 d9 k3 e1, PS) | 45 | –
ATGCAAGATTTACTTC (sugars k3 d10 k3, PS) | 38 | –
GATTTCTAGGATGATG (sugars k3 d10 k3, PS) | 57 | –
TGTTAGCTAAGGGAGA (sugars k3 d10 k3, PS) | 0 | –
CATCTATCATGCCTTC (sugars k3 d10 k3, PS) | 18 | –
ATCCCGTTCTTGCCCA (sugars k3 d10 k3, PS) | 30 | –
TGTATTTCGCTACTGT (sugars k3 d10 k3, PS) | 76 | target mRNA inhibition (0.02 µM): 12%; target mRNA inhibition (0.078 µM): 18%; target mRNA inhibition (0.313 µM): 46%; target mRNA inhibition (1.25 µM): 80%; target mRNA inhibition (5 µM): 90%
GAACAATATGGGATGA (sugars kkdddddddddkekek, PS) | 49 | –
GATTAGTCTTGATGTA (sugars k3 d1 m1 d8 k3, PS) | 45 | –
TAAAGTGCTAAGTAGT (sugars k3 d10 k3, PS) | 50 | –
GTATCATTTGGCTTAA (sugars k3 d10 k3, PS) | 29 | –
AGACTTTGAGACTCTT (sugars kkdddddddddkekek, PS) | 55 | –
GCTAAAATGGTCATCT (sugars k3 d10 k3, PS) | 40 | –
GAGGTAAGGAATCCCT (sugars k3 d10 k3, PS) | 27 | –
TATTCTTATGTCATCC (sugars k3 d10 k3, PS) | 75 | –
TTAGTATAGTTATCTT (sugars kkdddddddddkekek, PS) | 33 | –

Sequence | target mRNA inhibition (1 µM) [%] | other results
ATCAAGACATTCTAGC (sugars k4 m1 d8 k3, PS) | 37 | –
CTAAAACTGAAGGTCT (sugars k3 d10 k3, PS) | 40 | –
GGCAAAAGGAGCCAGT (sugars k3 d10 k3, PS) | 43 | –
GCATTCATCAGATGTT (sugars k3 d10 k3, PS) | 89 | target mRNA inhibition (0.02 µM): 3%; target mRNA inhibition (0.078 µM): 24%; target mRNA inhibition (0.313 µM): 66%; target mRNA inhibition (1.25 µM): 86%; target mRNA inhibition (5 µM): 91%
CTTTTGGTGGACTTCA (sugars k3 d10 k3, PS) | 10 | –
GATCUCTTAGCTGTGC (sugars k3 d1 m1 d8 k3, PS) | 65 | –
TGAAATCTTGTGTAAC (sugars k3 d10 k3, PS) | 43 | –
CTCAAGGAGTACTTCA (sugars k3 d10 k3, PS) | 82 | target mRNA inhibition (0.02 µM): 2%; target mRNA inhibition (0.078 µM): 2%; target mRNA inhibition (0.313 µM): 30%; target mRNA inhibition (1.25 µM): 78%; target mRNA inhibition (5 µM): 95%
AGTATTCCATCTATCA (sugars k3 d10 k3, PS) | 62 | –
ATAAGTAGTCTGCCTG (sugars k3 d10 k3, PS) | 43 | –
TGACATAACTTCATAG (sugars k3 d10 k3, PS) | 51 | –
GAGTTAGGGAGCCAGC (sugars k3 d10 k3, PS) | 39 | –
CTGCUGCTAGTGCCAA (sugars k3 d1 m1 d8 k3, PS) | 66 | –
ATAGAGTTGCACCGTT (sugars k3 d9 k3 e1, PS) | 71 | –
TCTAAGTTAGCCCCCA (sugars kkdddddddddkekek, PS) | 19 | –
TTAGTCTTGATGTAGT (sugars kkdddddddddkekek, PS) | 36 | –
AGAGTATTTCCTCTGG (sugars k3 d10 k3, PS) | 32 | –
GTTTTGGGCTAATGAA (sugars k3 d10 k3, PS) | 54 | –
GAGTTATACAGAAGAC (sugars k3 d10 k3, PS) | 61 | –
CTCGCCTAAAGGAGAT (sugars k3 d10 k3, PS) | 56 | –
ACTAATATTGAGGCAC (sugars kkdddddddddkekek, PS) | 27 | –
CTTCAGTTAGCAGCTA (sugars k3 d10 k3, PS) | 50 | –
CTGAAATTGATACACC (sugars k3 d10 k3, PS) | 67 | –

Sequence | target mRNA inhibition (1 µM) [%] | other results
AATTCACTATCTCCCT (sugars k3 d10 k3, PS) | 10 | –
TTTATTGGTATGGTAA (sugars k3 d10 k3, PS) | 25 | –
GTTAGTATAGTTATCT (sugars k3 d10 k3, PS) | 66 | target mRNA inhibition (0.02 µM): 0%; target mRNA inhibition (0.078 µM): 17%; target mRNA inhibition (0.313 µM): 40%; target mRNA inhibition (1.25 µM): 74%; target mRNA inhibition (5 µM): 86%
CATAATAATAGCTCTA (sugars k3 d1 m1 d8 k3, PS) | 33 | –
GGCAAGGATACCTGAA (sugars k3 d10 k3, PS) | 67 | –
TGAGAGTATAAATGGC (sugars k3 d10 k3, PS) | 67 | –
ATTCTAAACTAGTGGT (sugars k3 d10 k3, PS) | 39 | –
CTTTGCAGCATTGATT (sugars k3 d9 k3 e1, PS) | 56 | –
AATTAACATTCGGCTA (sugars k3 d10 k3, PS) | 38 | –
TACACTAATATTGAGG (sugars k3 d10 k3, PS) | 30 | –
ATAGCAAGCCAACAGA (sugars k3 d10 k3, PS) | 37 | –
AAGTTAGCCCCCAGGA (sugars k3 d10 k3, PS) | 36 | –
AAAGGTGGGATAAACT (sugars k3 d10 k3, PS) | 33 | –
TAGCTGTGCACTCATT (sugars kkdddddddddkekek, PS) | 53 | –
TGTGAAGAGCTGGTAA (sugars k3 d10 k3, PS) | 41 | –
CAAAGATCTGGCCAGT (sugars k3 d10 k3, PS) | 1 | –
CGATGGAAGAAGTGCT (sugars k3 d10 k3, PS) | 3 | –
GTGCATCTTAAGATAC (sugars k3 d1 m1 d8 k3, PS) | 40 | –
AGGTTGAGATAAAGCT (sugars k3 d9 k3 e1, PS) | 71 | target mRNA inhibition (0.02 µM): 0%; target mRNA inhibition (0.078 µM): 23%; target mRNA inhibition (0.313 µM): 46%; target mRNA inhibition (1.25 µM): 64%; target mRNA inhibition (5 µM): 77%
TAAAATAGAGTCGGTC (sugars kkdddddddddkekek, PS) | 68 | –
TAATAATGGGCAGAGC (sugars k3 d10 k3, PS) | 30 | –
CGAAACTATTCATATC (sugars k3 d10 k3, PS) | 66 | –
GCATCAAGACATTCTA (sugars k3 d9 k3 e1, PS) | 84 | target mRNA inhibition (0.02 µM): 0%; target mRNA inhibition (0.078 µM): 8%; target mRNA inhibition (0.313 µM): 13%; target mRNA inhibition (1.25 µM): 31%; target mRNA inhibition (5 µM): 74%
